Laboratory results from PubChem BioAssay (NCI).
Where “and” joins values, the source holds several entries; their conditions need not be identical. Equal values may be shown once.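 Compound exposure: 48 hours, 5 concentrations, 96-well plates. GI50 is the concentration that inhibits growth by half. TGI: concentration producing complete growth inhibition.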

How the values were obtained:
Test in all cases: NCI tumour cell line growth inhibition, 48 h
[1] = tested on: SNB-19 CNS
[2] = tested on: MALME-3M melanoma
[3] = tested on: HOP-62 NSCLC
[4] = tested on: CCRF-CEM leukemia
[5] = tested on: CAKI-1 renal
[6] = tested on: OVCAR-8 ovarian
[7] = tested on: LOX IMVI melanoma
[8] = tested on: SNB-78 CNS
[9] = tested on: XF 498 CNS
[10] = tested on: OVCAR-5 ovarian
[11] = tested on: LXFL 529 NSCLC
[12] = tested on: SK-MEL-5 melanoma
[13] = tested on: OVCAR-3 ovarian
[14] = tested on: SK-MEL-2 melanoma
[15] = tested on: HCT-15 colon
[16] = tested on: KM20L2 colon
[17] = tested on: NCI-H460 lung
[18] = tested on: UACC-62 melanoma
[19] = tested on: HCC-2998 colon
[20] = tested on: A498 renal
[21] = tested on: HOP-92 NSCLC
[22] = tested on: EKVX NSCLC
[23] = tested on: MDA-MB-435
[24] = tested on: UO-31 renal
[25] = tested on: KM12 colon
[26] = tested on: UACC-257 melanoma
[27] = tested on: SF-268 CNS
[28] = tested on: SK-OV-3 ovarian
[29] = tested on: 786-0 renal
[30] = tested on: SF-295 CNS
[31] = tested on: NCI-H23 lung
[32] = tested on: ACHN renal
[33] = tested on: RXF-631 renal
[34] = tested on: M14 melanoma
[35] = tested on: HOP-18 NSCLC
[36] = tested on: OVCAR-4 ovarian
[37] = tested on: SR leukemia
[38] = tested on: TK-10 renal
[39] = tested on: K-562 leukemia
[40] = tested on: SW-620 colon
[41] = tested on: SN12C renal
[42] = tested on: HCT-116 colon
[43] = tested on: RXF 393 renal
[44] = tested on: RPMI-8226 leukemia
[45] = tested on: COLO 205 colon
[46] = tested on: DMS 273 small cell lung
[47] = tested on: SK-MEL-28 melanoma
[48] = tested on: A549 NSCLC
[49] = tested on: U251 CNS
[50] = tested on: SNB-75 CNS
[51] = tested on: HL-60(TB) leukemia
[52] = tested on: NCI-H226 lung
[53] = tested on: SF-539 CNS
[54] = tested on: IGROV1 ovarian
[55] = tested on: MOLT-4 leukemia
[56] = tested on: NCI-H522 lung
[57] = tested on: HT29 colon
[58] = tested on: DMS 114 small cell lung
[59] = tested on: DLD-1 colon

## CC(C)S(=O)(=O)ON1C(=O)c2ccc(N(C)C)cc2C1=O
[1]
  TGI: > 100 µM
[2]
  GI50: 20.5 µM
  TGI: 8.68 µM and 53.5 µM
[3]
  TGI: > 63.4 µM
[4]
  GI50: 0.29 µM
  TGI: 1.06 µM and 9.21 µM
[5]
  GI50: 13.6 µM
  TGI: 28.7 µM
[6]
  GI50: 5.05 µM
  TGI: 6.47 µM and 63.7 µM
[7]
  GI50: 9.69 µM
  TGI: 29.6 µM
[8]
  TGI: > 100 µM
[9]
  TGI: 32.3 µM
[10]
  TGI: 42 µM
[11]
  TGI: 25.1 µM
[12]
  GI50: 15.3 µM
  TGI: 31.4 µM
[13]
  TGI: 24.5 µM
[14]
  GI50: 19.1 µM
  TGI: 45 µM
[15]
  TGI: 32.3 µM
[16]
  TGI: 41.2 µM
[17]
  TGI: 37.3 µM
[18]
  TGI: 33.7 µM
[19]
  TGI: 18 µM
[20]
  TGI: > 60.7 µM
[21]
  GI50: 28 µM
  TGI: 54.5 µM
[22]
  TGI: 41.7 µM
[23]
  TGI: 4.75 µM
[24]
  TGI: 34.5 µM
[25]
  TGI: 46.4 µM
[26]
  TGI: 38.8 µM
[27]
  TGI: 66.8 µM
[28]
  TGI: > 78.6 µM
[29]
  GI50: 19.5 µM
  TGI: 42 µM
[30]
  TGI: > 67.1 µM
[31]
  TGI: > 59.2 µM
[32]
  TGI: 33.7 µM
[33]
  TGI: 19.7 µM
[34]
  TGI: 40 µM
[35]
  TGI: 27.3 µM
[36]
  GI50: 6.01 µM
  TGI: 33.7 µM
[37]
  GI50: 0.752 µM
  TGI: 3.18 µM and 9.78 µM
[38]
  TGI: 37.1 µM
[39]
  GI50: 2.48 µM
  TGI: 21.3 µM
[40]
  GI50: 4.01 µM
  TGI: 38.6 µM
[41]
  TGI: 34.3 µM
[42]
  GI50: 2.44 µM
  TGI: 9.13 µM and 30.8 µM
[43]
  GI50: 5.34 µM
  TGI: 17.9 µM
[44]
  GI50: 1.71 µM
  TGI: 6.46 µM and 9.12 µM
[45]
  GI50: 8.36 µM
  TGI: 21.5 µM
[46]
  TGI: 35.6 µM
[47]
  TGI: 56.1 µM
[48]
  TGI: 58 µM
[49]
  TGI: 30.3 µM
[50]
  GI50: 8.66 µM
  TGI: 39.3 µM
[51]
  GI50: 0.417 µM
[52]
  TGI: > 60.9 µM
[53]
  TGI: 37.4 µM
[54]
  TGI: 43 µM
[55]
  GI50: 0.4 µM
  TGI: 4.57 µM and > 22.8 µM
[56]
  GI50: 1.79 µM
  TGI: 4.42 µM and 3.85 µM
[57]
  TGI: > 58 µM

## CCOC(=O)/C=C(\C)c1ccc(Cl)cc1
[1]
  TGI: > 100 µM
[2]
  TGI: > 100 µM
[4]
  TGI: > 100 µM
[5]
  TGI: > 100 µM
[6]
  TGI: > 100 µM
[7]
  TGI: > 100 µM
[8]
  TGI: > 100 µM
[9]
  TGI: > 100 µM
[10]
  TGI: > 100 µM
[11]
  TGI: > 100 µM
[14]
  TGI: > 100 µM
[15]
  TGI: > 100 µM
[16]
  TGI: > 100 µM
[58]
  TGI: > 100 µM
[17]
  TGI: > 100 µM
[19]
  TGI: > 100 µM
[20]
  TGI: > 100 µM
[21]
  TGI: > 100 µM
[22]
  TGI: > 100 µM
[24]
  TGI: > 100 µM
[25]
  TGI: > 100 µM
[26]
  TGI: > 100 µM
[27]
  TGI: > 100 µM
[30]
  TGI: > 100 µM
[31]
  TGI: > 100 µM
[32]
  TGI: > 100 µM
[33]
  TGI: > 100 µM
[34]
  TGI: > 100 µM
[35]
  TGI: > 100 µM
[36]
  TGI: > 100 µM
[37]
  TGI: > 100 µM
[38]
  TGI: > 100 µM
[39]
  TGI: > 100 µM
[40]
  TGI: > 100 µM
[41]
  TGI: > 100 µM
[42]
  TGI: > 100 µM
[43]
  TGI: > 100 µM
[44]
  TGI: > 100 µM
[45]
  TGI: > 100 µM
[46]
  TGI: > 100 µM
[47]
  TGI: > 100 µM
[48]
  TGI: > 100 µM
[59]
  TGI: > 100 µM
[49]
  TGI: > 100 µM
[50]
  TGI: > 100 µM
[51]
  TGI: > 100 µM
[52]
  TGI: 98.4 µM
[53]
  TGI: > 100 µM
[54]
  TGI: > 100 µM
[55]
  TGI: > 100 µM
[57]
  TGI: > 100 µM

## O=C(O)c1ccccc1NS(=O)(=O)c1ccc([N+](=O)[O-])cc1
[1]
  TGI: > 100 µM
[2]
  TGI: > 100 µM
[3]
  TGI: > 100 µM
[4]
  TGI: > 100 µM
[5]
  TGI: > 100 µM
[6]
  TGI: > 100 µM
[7]
  TGI: > 100 µM
[8]
  TGI: > 100 µM
[9]
  TGI: > 100 µM
[10]
  TGI: > 100 µM
[11]
  TGI: > 100 µM
[12]
  TGI: > 100 µM
[13]
  TGI: > 100 µM
[14]
  TGI: > 100 µM
[15]
  TGI: > 100 µM
[16]
  TGI: > 100 µM
[17]
  TGI: > 100 µM
[18]
  TGI: > 100 µM
[19]
  TGI: > 100 µM
[22]
  TGI: > 100 µM
[24]
  TGI: > 100 µM
[25]
  TGI: > 100 µM
[26]
  TGI: > 100 µM
[27]
  TGI: > 100 µM
[28]
  TGI: > 100 µM
[29]
  TGI: > 100 µM
[30]
  TGI: > 100 µM
[31]
  TGI: > 100 µM
[32]
  TGI: > 100 µM
[33]
  TGI: > 100 µM
[34]
  TGI: > 100 µM
[35]
  TGI: > 100 µM
[36]
  TGI: > 100 µM
[38]
  TGI: > 100 µM
[39]
  TGI: > 100 µM
[40]
  TGI: > 100 µM
[41]
  TGI: > 100 µM
[42]
  TGI: > 100 µM
[43]
  TGI: > 100 µM
[44]
  TGI: > 100 µM
[45]
  TGI: > 100 µM
[46]
  TGI: > 100 µM
[47]
  TGI: > 100 µM
[48]
  TGI: > 100 µM
[49]
  TGI: > 100 µM
[50]
  TGI: > 100 µM
[52]
  TGI: > 100 µM
[53]
  TGI: > 100 µM
[54]
  TGI: > 100 µM
[55]
  TGI: > 100 µM
[56]
  TGI: > 100 µM
[57]
  TGI: > 100 µM

## C=CCN=C1N=C(C)C(C(=O)OCC)S1 (stereo not drawn)
[1]
  TGI: > 100 µM
[2]
  TGI: > 100 µM
[3]
  TGI: > 100 µM
[4]
  TGI: > 100 µM
[5]
  TGI: > 100 µM
[6]
  TGI: > 100 µM
[7]
  TGI: > 100 µM
[8]
  TGI: > 100 µM
[9]
  TGI: > 100 µM
[10]
  TGI: > 100 µM
[11]
  TGI: > 100 µM
[12]
  TGI: > 100 µM
[13]
  TGI: > 100 µM
[14]
  TGI: > 100 µM
[15]
  TGI: > 100 µM
[16]
  TGI: > 100 µM
[58]
  TGI: > 100 µM
[17]
  TGI: > 100 µM
[18]
  TGI: > 100 µM
[19]
  TGI: > 100 µM
[20]
  TGI: > 100 µM
[21]
  TGI: > 100 µM
[22]
  TGI: > 100 µM
[24]
  TGI: > 100 µM
[25]
  TGI: > 100 µM
[26]
  TGI: > 100 µM
[27]
  TGI: > 100 µM
[28]
  TGI: > 100 µM
[29]
  TGI: > 100 µM
[30]
  TGI: > 100 µM
[31]
  TGI: > 100 µM
[32]
  TGI: > 100 µM
[33]
  TGI: > 100 µM
[34]
  TGI: > 100 µM
[35]
  TGI: > 100 µM
[36]
  TGI: > 100 µM
[37]
  TGI: > 100 µM
[38]
  TGI: > 100 µM
[39]
  TGI: > 100 µM
[40]
  TGI: > 100 µM
[41]
  TGI: > 100 µM
[42]
  TGI: > 100 µM
[43]
  TGI: > 100 µM
[44]
  TGI: > 100 µM
[45]
  TGI: > 100 µM
[46]
  TGI: > 100 µM
[47]
  TGI: > 100 µM
[48]
  TGI: > 100 µM
[59]
  TGI: > 100 µM
[49]
  TGI: > 100 µM
[50]
  TGI: > 100 µM
[51]
  TGI: > 100 µM
[52]
  TGI: > 100 µM
[53]
  TGI: > 100 µM
[54]
  TGI: > 100 µM
[55]
  TGI: > 100 µM
[56]
  TGI: > 100 µM
[57]
  TGI: > 100 µM
